Laboratory results published in ChEMBL document CHEMBL1133457 (J Med Chem, 2000).

Key:
[1] = molecular target: T1, Prostaglandin G/H synthase 2 (Homo sapiens, UniProt P35354)
T1 sequence (P35354 whole entry): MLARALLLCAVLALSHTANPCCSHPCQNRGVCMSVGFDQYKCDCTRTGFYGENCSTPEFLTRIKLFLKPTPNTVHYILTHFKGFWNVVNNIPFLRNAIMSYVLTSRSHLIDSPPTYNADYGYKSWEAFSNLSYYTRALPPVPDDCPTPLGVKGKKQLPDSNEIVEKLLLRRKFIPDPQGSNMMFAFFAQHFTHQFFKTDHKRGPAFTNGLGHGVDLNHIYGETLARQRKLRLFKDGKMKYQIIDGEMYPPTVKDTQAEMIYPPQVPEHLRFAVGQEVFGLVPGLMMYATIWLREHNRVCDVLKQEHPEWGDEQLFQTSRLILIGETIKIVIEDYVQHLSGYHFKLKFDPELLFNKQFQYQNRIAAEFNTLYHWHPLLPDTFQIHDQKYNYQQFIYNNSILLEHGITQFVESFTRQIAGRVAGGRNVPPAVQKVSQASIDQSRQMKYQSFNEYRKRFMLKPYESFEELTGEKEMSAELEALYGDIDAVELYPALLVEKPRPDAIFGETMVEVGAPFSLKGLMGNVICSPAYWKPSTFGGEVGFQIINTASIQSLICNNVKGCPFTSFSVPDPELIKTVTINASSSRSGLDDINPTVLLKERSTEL

[2] = molecular target: T2, Prostaglandin G/H synthase 1 (Ovis aries, UniProt P05979)
T2 sequence (P05979 whole entry): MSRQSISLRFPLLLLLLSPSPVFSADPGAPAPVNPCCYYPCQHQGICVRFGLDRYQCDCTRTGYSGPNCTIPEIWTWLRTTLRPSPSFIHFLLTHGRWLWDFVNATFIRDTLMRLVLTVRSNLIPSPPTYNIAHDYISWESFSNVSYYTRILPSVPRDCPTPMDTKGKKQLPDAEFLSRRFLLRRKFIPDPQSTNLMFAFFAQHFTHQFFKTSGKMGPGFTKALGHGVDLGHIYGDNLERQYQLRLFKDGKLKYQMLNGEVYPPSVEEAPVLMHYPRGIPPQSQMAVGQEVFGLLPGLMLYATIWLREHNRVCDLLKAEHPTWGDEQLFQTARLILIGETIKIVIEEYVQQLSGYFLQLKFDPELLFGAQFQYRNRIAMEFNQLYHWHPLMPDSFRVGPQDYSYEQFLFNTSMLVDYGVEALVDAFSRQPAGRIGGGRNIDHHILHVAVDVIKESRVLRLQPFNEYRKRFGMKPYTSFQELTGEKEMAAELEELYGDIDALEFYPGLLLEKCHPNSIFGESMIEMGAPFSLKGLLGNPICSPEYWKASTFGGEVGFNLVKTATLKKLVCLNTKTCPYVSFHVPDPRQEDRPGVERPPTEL

Row | SMILES | IC50 [1] | IC50 [2]
1 | CCN(CC)C(=O)Cc1c(C)n(C(=O)c2ccc(Cl)cc2)c2ccc(OC)cc12 | 25 µM | > 66 µM
2 | COc1ccc2c(c1)c(CC(=O)Nc1cc(OC)c(OC)c(OC)c1)c(C)n2C(=O)c1ccc(Cl)cc1 | > 1 µM | > 66 µM
3 | COc1ccc2c(c1)c(CC(=O)NCCOC(=O)/C=C/c1ccc(N(C)C)cc1)c(C)n2C(=O)c1ccc(Cl)cc1 |  | > 66 µM
4 | COc1ccc2c(c1)c(CC(=O)OCCc1ccccc1)cn2C(=O)c1ccc(Cl)cc1 | > 66 µM | > 66 µM
5 | COc1ccc2c(c1)c(CC(=O)NCCc1ccccc1)cn2C(=O)c1ccc(Cl)cc1 | > 66 µM | > 66 µM
6 | COc1ccc2c(c1)c(CC(=O)Nc1cc(C)c(C(=O)Nc3ccccc3)cc1OC)c(C)n2C(=O)c1ccc(Cl)cc1 | 0.6 µM | 17 µM
7 | COc1ccc2c(c1)c(CC(=O)Nc1ncc(C)s1)c(C)n2C(=O)c1ccc(Cl)cc1 |  | > 66 µM
8 | COc1ccc2c(c1)c(CC(=O)N(C)C)c(C)n2C(=O)c1ccc(Cl)cc1 |  | > 66 µM
9 | COc1ccc2c(c1)c(CC(=O)Nc1cncc(Cl)c1)c(C)n2C(=O)c1ccc(Cl)cc1 | 0.047 µM | > 66 µM
10 | COc1ccc2c(c1)c(CC(=O)N1CCOCC1)c(C)n2C(=O)c1ccc(Cl)cc1 [INDOMETHACIN MORPHOLINYLAMIDE] | > 33 µM | > 66 µM

The remaining compounds from weak to strong by IC50 [1], led by results:

Row | IC50 [1] | IC50 [2] | SMILES
11 | 5 µM | > 66 µM | COc1ccc2c(c1)c(CC(=O)Oc1cccc3ccccc13)c(C)n2C(=O)c1ccc(Cl)cc1
12 | 2.5 µM | > 66 µM | COc1ccc2c(c1)c(CC(=O)NNCc1ccccc1)c(C)n2C(=O)c1ccc(Cl)cc1
13 | 0.4 µM |  | COC(=O)[C@@H](C)NC(=O)Cc1c(C)n(C(=O)c2ccc(Cl)cc2)c2ccc(OC)cc12
14 | 0.14 µM | > 66 µM | COc1ccc2c(c1)c(CC(=O)Nc1ccc(C(N)=O)cc1)c(C)n2C(=O)c1ccc(Cl)cc1
15 | 0.06 µM | 4 µM | COc1ccc2c(c1)c(CC(=O)NOCc1ccc([N+](=O)[O-])cc1)c(C)n2C(=O)c1ccc(Cl)cc1
16 | 0.05 µM | 45 µM | COc1ccc2c(c1)c(CC(=O)Nc1cccnc1Cl)c(C)n2C(=O)c1ccc(Cl)cc1
17 | 0.05 µM | 0.06 µM | COc1ccc2c(c1)c(CC(=O)NOCc1ccccc1)c(C)n2C(=O)c1ccc(Cl)cc1
18 | 0.045 µM | > 66 µM | COc1ccc2c(c1)c(CC(=O)OCCNC(=O)OC(C)(C)C)c(C)n2C(=O)c1ccc(Cl)cc1
19 | 0.04 µM |  | COc1ccc2c(c1)c(CC(=O)OCCc1ccccc1)c(C)n2C(=O)c1ccc(Cl)cc1
